Assay results from ChEMBL document CHEMBL1158146, “Oppositines A and B, sesquiterpene pyridine alkaloids from a Sri Lankan Pleurostylia opposita” (J Nat Prod, 2006).
Activity calls are given as the source filed them. No cut-off for these calls is given here.

Legend:
[1] = Cytotoxicity against human HCT 116 cells after 48 hrs by MTT assay; assay type: functional, cell-based; conditions: HCT-116, 48 h
[2] = molecular target: Hypoxia-inducible factor 1-alpha (Homo sapiens) (UniProt Q16665); test: Inhibition of HIF1alpha
Sequence of Hypoxia-inducible factor 1-alpha (Homo sapiens) (Q16665 whole entry, looked up): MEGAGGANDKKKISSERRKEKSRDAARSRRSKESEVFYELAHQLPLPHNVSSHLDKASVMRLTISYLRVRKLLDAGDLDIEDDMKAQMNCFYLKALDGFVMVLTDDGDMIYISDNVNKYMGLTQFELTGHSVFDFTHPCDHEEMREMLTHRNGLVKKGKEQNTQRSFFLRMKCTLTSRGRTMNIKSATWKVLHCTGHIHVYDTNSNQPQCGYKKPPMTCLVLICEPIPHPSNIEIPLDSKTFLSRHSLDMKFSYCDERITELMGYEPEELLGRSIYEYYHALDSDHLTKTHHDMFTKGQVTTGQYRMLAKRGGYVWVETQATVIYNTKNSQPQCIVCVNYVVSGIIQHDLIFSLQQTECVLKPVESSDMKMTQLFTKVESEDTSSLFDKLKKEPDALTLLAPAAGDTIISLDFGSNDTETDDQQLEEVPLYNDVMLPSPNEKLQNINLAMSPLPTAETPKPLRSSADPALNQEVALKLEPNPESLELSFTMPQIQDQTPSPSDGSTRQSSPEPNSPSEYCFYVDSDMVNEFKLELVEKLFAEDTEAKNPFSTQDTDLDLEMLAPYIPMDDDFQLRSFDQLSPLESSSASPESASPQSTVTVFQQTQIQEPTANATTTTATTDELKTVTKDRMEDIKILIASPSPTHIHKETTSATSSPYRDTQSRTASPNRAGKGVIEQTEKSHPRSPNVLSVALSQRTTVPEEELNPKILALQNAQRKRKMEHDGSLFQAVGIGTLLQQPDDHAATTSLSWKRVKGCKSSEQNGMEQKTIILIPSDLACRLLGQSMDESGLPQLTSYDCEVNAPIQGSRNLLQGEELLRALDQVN

[3] = tested on: Human immunodeficiency virus; test: Antiviral activity against HIV upto 10 ug/mL; assay type: functional, organism-based

Row | Activity [2] | SMILES | EC50 [1] | Activity [3]
1 | inactive | CCC1CCC(=O)O[C@H]2[C@H](OC(C)=O)[C@H](OC(=O)c3ccccc3)[C@@]3(COC(C)=O)[C@H](OC(C)=O)[C@H](OC(C)=O)[C@@H]4[C@@H](OC(C)=O)[C@]3(O[C@]4(C)COC(=O)c3cccnc31)[C@@]2(C)O (stereo partly specified) [OPPOSITINE A] | 27 µM | inactive
2 | inactive | CCC1CCC(=O)O[C@H]2[C@H](OC(C)=O)[C@H](OC(=O)c3ccccc3)[C@@]3(COC(C)=O)[C@H](OC(C)=O)[C@H](OC(C)=O)[C@@H]4[C@@H](OC(C)=O)[C@]3(O[C@]4(C)COC(=O)c3cccnc31)[C@@H]2C (stereo partly specified) [OPPOSITINE B] | 26 µM | inactive
